Measured values taken from patent publication US10426758B2, “Sibiriline derivatives for use for preventing and/or treating disorders associated with cellular necroptosis” (Institut National de la Sante et de la Recherche Medicale …, priority 2015, dated 2019).

Columns and labels:
L929sAhFas [1] = experiment: Necroptosis induced by FasL + zVAD-fmk in L929sAhFas, MTS Cell Proliferation assay; format: cell-based; settings: Mus musculus
Description: (§1) Besides, the IC50 of compound 3, compound 6 and necrostatin-1 (Nec-1) were determined in mouse or human cellular models of necroptosis induced by FasL+zVAD-fmk (a pan-caspase inhibitor) or TNF, and by using two cytotoxic assays (MTS Cell Proliferation assay or intracellular ATP level). As shown in the table below, compound 3 and compound 6 inhibit TNF-α or FasL-induced necroptosis with IC50 almost similar to those obtained with Nec-1.

Jurkat Fadd−/− [2] = experiment: Necroptosis induced by TNF in Jurkat Fadd−/−, intracellular ATP level; format: cell-based; settings: Homo sapiens
Description: as §1

Jurkat Fadd−/− [3] = experiment: Necroptosis induced by TNF in Jurkat Fadd−/−, MTS Cell Proliferation assay; format: cell-based; settings: Homo sapiens
Description: as §1

L929sAhFas [4] = experiment: Necroptosis induced by FasL + zVAD-fmk in L929sAhFas, intracellular ATP level; format: cell-based; settings: Mus musculus
Description: as §1

[5] = tested on: murine model of acute hepatitis (concanavalin A-induced hepatitis); experiment: Concanavalin A-induced acute hepatitis in mice; format: in vivo, C57Bl/6 WT mice; settings: Nec-1s 6.25 mg/kg intraperitoneal 1 hour before 12 mg/kg Con A for 10 h
Description: We use a murine model of acute hepatitis (concanavalin A-induced hepatitis) that depends on necroptosis induction (Jouan-Lanhouet et al. Semin. Cell. Dev. Biol. 2014, 35, 2-13). Sib is diluted in 50% PBS/50% DMSO.
C57Bl/6 WT mice were pre-treated or not with 3, 6 or 9 mg/kg Sib or 6.25 mg/kg Nec-1s injected by intraperitoneal route 1 hour before treatment or not with 12 mg/kg Con A for 10 h (intravenous route) (50% PBS/50% DMSO, n=5; 50% PBS/50% DMSO+Con A, n=5; 3 mg/kg Sib+Con A, n=5; 6 mg/kg Sib+Con A, n=5; 9 mg/kg Sib+Con A, n=5; 6.25 mg/kg Nec-1s+Con A, n=5).

[6] = tested on: cytochrome P450 CYP1A enzymes in HepG2 cells; experiment: Ethoxyresorufin O-deethylase (EROD) activity in HepG2 cells; format: in vitro ADME, human; settings: 10 μM, 24 hours
Description: EROD activity corresponds to the O-deethylation of ethoxyresorufin and is mainly supported by cytochrome P450 CYP1A enzymes in HepG2 cells. Induction of CYP1A is mediated through the binding of xenobiotics to a cytosolic aryl hydrocarbon receptor AhR.
Human liver cancer cell lines HepG2 were treated with 10 μM of Sib, Nec-1 or Nec-1s for 24 hours. After treatment, HepG2 cells were incubated in PBS containing 5 mM ethoxyresorufin and kinetic reading was performed at 37° C. with spectrofluorometer (SpectraMax Gemini SX) over a 15 min period.

[7] = tested on: Jurkat FADD-deficient I 2.1 cell line; experiment: Cell-based screening: TNF-α-induced necroptosis in Jurkat FADD-deficient cells, MTS viability assay; parameters: species or system human; settings: for EC50: Homo sapiens, Jurkat, necroptosis induced by 10 ng/ml TNF-α, 24 hours, MTS viability; for inhibition of necroptosis induced by TNF-α (figure legend): human T lymphocyte, Jurkat FADD deficient cell line
Description: TNF-α can induce necroptosis in Jurkat cells (human T lymphocytes) when FADD is deleted. This model was used to screen various libraries of chemical compounds for characterization of new inhibitors of cellular necroptosis. Details on this cell-based assay can be found in (Miao and Degterev, Methods Mol. Biol. 2009, 559, 79-93). The Jurkat FADD-deficient I 2.1 cell line used was purchased from ATCC and was maintained in RPMI 1640 medium (Gibco) containing Glutamax and 15% fetal calf serum (Life Technology). Necroptosis was induced by addition of 10 ng/ml of human recombinant TNF-α (Life Technology). Necrostatin-1 (Nec-1, Enzo Life Sciences) was used as model necroptosis inhibitor. Cells were maintained in 75 cm^2 flask and passed every 2 or 3 days. Chemical collections analysed were formatted in 96-well plates with 80 molecules per plates at 10 mM in 100% DMSO. For each collection plate, 2 cell plates were seeded (one necroptosis-induced with TNF-α and the other without TNF-α). Cells were seeded at 20000 cells/well, in 40 μl of medium, in a 96-well clear, flat bottom plate (CytoOne, Starlab) before treatment. Then, 40 μl of medium with or without TNF-α at 25 ng/ml were added to all wells in the corresponding plate. Immediately after TNF-α addition, 20 μl of diluted compound at 50 μM were added to the plates. Final concentration of each chemical compound was 10 μM at 0.1% DMSO. Four positives (Nec-1 at 10 μM final) and four negative (DMSO) controls were used in each plate to validate the assay. Cells were incubated at 37° C., 5% CO2 for 24 hours before performing MTS viability assay, described hereafter. Compounds were diluted before to treat cells. Liquid handling was performed using the Nimbus Microlab liquid handler (Hamilton Robotics) under microbiological safety workbench. The 10 mM compounds were diluted at 50 μM directly in cell medium.

[8] = biological target: T1, Human RIPK1 full length GST-tagged (Homo sapiens, UniProt Q13546); experiment: RIPK1 autophosphorylation assay; format: biochemical; settings: radioactively labeled RIPK1, [γ-32P] ATP, 30 minutes at 30° C.
T1 construct: Human RIPK1 full length GST-tagged; made in house; host or cells: Sf9 insect cells (Bac-to-Bac baculovirus system)
T1 sequence (Q13546 1-671): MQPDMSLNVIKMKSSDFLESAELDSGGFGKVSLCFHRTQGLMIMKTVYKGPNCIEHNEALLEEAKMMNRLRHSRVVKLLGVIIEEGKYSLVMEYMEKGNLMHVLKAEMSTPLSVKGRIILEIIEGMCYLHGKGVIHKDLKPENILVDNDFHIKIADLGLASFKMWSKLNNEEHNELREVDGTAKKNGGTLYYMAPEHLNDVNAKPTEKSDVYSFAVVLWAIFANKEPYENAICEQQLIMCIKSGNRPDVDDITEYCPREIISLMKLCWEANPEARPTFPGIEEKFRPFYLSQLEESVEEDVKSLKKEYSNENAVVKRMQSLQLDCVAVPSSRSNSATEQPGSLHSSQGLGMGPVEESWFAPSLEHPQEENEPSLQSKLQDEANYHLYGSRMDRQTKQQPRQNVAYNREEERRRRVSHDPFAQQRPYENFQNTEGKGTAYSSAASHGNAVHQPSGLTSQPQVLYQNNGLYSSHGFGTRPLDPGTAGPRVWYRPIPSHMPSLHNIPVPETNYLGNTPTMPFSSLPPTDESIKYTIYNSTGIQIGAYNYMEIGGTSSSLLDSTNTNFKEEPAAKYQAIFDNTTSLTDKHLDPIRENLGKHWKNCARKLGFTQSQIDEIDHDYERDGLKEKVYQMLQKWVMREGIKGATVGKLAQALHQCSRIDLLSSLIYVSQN
Description: Human RIPK1 full length GST-tagged was baculovirally expressed in Sf9 cells according to manufacturer's instructions (Bac-to-Bac expression system, Invitrogen) and purified using gluthation-sepharose beads (GE Healthcare). The elution was made in 50 mM Tris-HCl, pH 8.0 buffer supplemented with 30 mM reduced gluthatione (Sigma). The protocol used to detect the enzymatic activity is adapted from Miao and Degterev (Methods Mol. Biol. 2009, 559, 79-93). Kinase reaction was initiated mixing 5 μl of eluted RIPK1, 5 μl of 3× kinase reaction buffer (5 mM MOPS pH 7.2, 2.5 mM β-glycerophosphate, 4 mM MgCl2, 2.5 mM MnCl2, 1 mM EGTA, 0.4 mM EDTA, 50 μg/ml BSA, 0.05 mM DTT), 2 μl H2O and 3 μl of the tested molecule. The mixture was kept on ice for 10 minutes. During the incubation, the ATP solution was prepared by mixing 5 μl of 3× kinase reaction buffer, 4 μl H2O, 6 μl cold ATP at 150 μM and 2 μCi of [γ-^32P] ATP. Add the ATP solution and the tested inhibitor to the kinase and incubate for 30 minutes at 30° C. To stop the enzymatic reaction, 5 μl of loading buffer were added and solution was heated for 3 minutes at 95° C. 25 μl of each reaction were loaded per well in pre-cast NuPage 12% Bis-Tris gel (Life Technology). Autophosphorylated RIPK1 band was visualized on radiographic film after 6 h exposition at −80° C.

Row | SMILES | EC50 [7] [nM] | inhibition of necroptosis induced by TNF-α (figure legend) [7] | also measured
1 | CN1C(=O)C(Cc2c[nH]c3ccccc23)NC1=S (centres unmarked) [Nec-1, necrostatin-1, reference compound] |  |  | IC50 (L929sAhFas [1]): 10000 nM; IC50 (Jurkat Fadd−/− [2]): 1300 nM; IC50 (Jurkat Fadd−/− [3]): 1300 nM; IC50 (L929sAhFas [4]): 10000 nM
2 | CN1C(=O)NC(Cc2c[nH]c3c(Cl)cccc23)C1=O (centres unmarked) [Nec-1s, reference compound] |  |  | AST and ALT levels and protection from Con A-induced hepatitis [5]: has a tendency to decrease AST and ALT levels and to protect mice from Con A-induced hepatitis; induction of EROD activity [6]: do not induce EROD activity
3 | COc1ccc(-c2cc3cccnc3[nH]2)cc1 [compound 1, 2-(4-methoxyphenyl)-1H-pyrrolo[2,3-b]pyridine] | 400 | dose-dependent inhibition | 
4 | CCOc1ccc(-c2cc3cccnc3[nH]2)cc1 [compound 3, 2-(4-ethoxyphenyl)-1H-pyrrolo[2,3-b]pyridine] | 700 | dose-dependent inhibition | inhibition of RIPK1 autophosphorylation [8]: dose-dependent inhibition; IC50 (Jurkat Fadd−/− [2]): 1300 nM; IC50 (Jurkat Fadd−/− [3]): 2700 nM; IC50 (L929sAhFas [4]): 2500 nM
5 | CC(C)Oc1ccc(-c2cc3cccnc3[nH]2)cc1 [compound 4, 2-(4-isopropoxyphenyl)-1H-pyrrolo[2,3-b)pyridine] | 900 | dose-dependent inhibition | 
6 | c1cnc2[nH]c(-c3ccc4c(c3)OCCO4)cc2c1 [compound 5, 2-(1,4-benzodioxanyl)-1H-pyrrolo[2,3-b]pyridine] | 1400 |  | 
7 | c1cnc2[nH]c(-c3ccc4c(c3)OCO4)cc2c1 [compound 6] | 1800 |  | IC50 (L929sAhFas [1]): 10000 nM; IC50 (Jurkat Fadd−/− [2]): 4000 nM; IC50 (Jurkat Fadd−/− [3]): 7000 nM
8 | CCOc1ccc(-c2cc3c(Cl)ccnc3[nH]2)cc1 [compound 7, 4-chloro-2-(4-ethoxyphenyl)-1H-pyrrolo[2,3-b]pyridine] | 2000 | dose-dependent inhibition | inhibition of RIPK1 autophosphorylation [8]: dose-dependent inhibition
9 | CCOc1ccc(-c2cc3cc(-c4ccc(OC)c(OC)c4)cnc3[nH]2)cc1 [compound 8, 5-(3,4-dimethoxyphenyl)-2-(4-ethoxyphenyl)-1H-pyrrolo[2,3-b]pyridine] | 1500 | dose-dependent inhibition | 
10 | c1cnc2[nH]c(-c3ccc(OC4CCCC4)cc3)cc2c1 [compound 9, 2-(4-(cyclopentyloxy)phenyl)-1H-pyrrolo[2,3-b]pyridine] | 3000 | dose-dependent inhibition | 
11 | CCOc1ccc(-c2cc3cc(Br)cnc3[nH]2)cc1 [compound 10, 5-bromo-2-(4-ethoxyphenyl)-1H-pyrrolo[2,3-b]pyridine] |  | slight dose-dependent inhibition | 
